# Target: T1, human μ-opiate receptor (Homo sapiens, UniProt P35372)
# T1 construct: purchased PerkinElmer Life Sciences, Zaventem, Belgium RB-HOM; host or cells: CHO-K1 cells (recombinant expression; membrane preparation)
# Assay: Affinity for the human μ-opiate receptor ([3H]-naloxone displacement, SPA)
# Settings: Table 2, Examples 11-161; test substance 1 μmole/l; inhibition of specific [3H]-naloxone binding; CHO-K1 membranes; read-out: μ-Opioid receptor, % inhibition [1 μM]
# Method: Investigations on the Efficacy of the Compounds According to the Invention Method for Determining the Affinity for the Human μ-Opiate Receptor
# The receptor affinity for the human μ-opiate receptor is determined in a homogeneous batch in microtiter plates. For this purpose dilution series of the substances to be tested are incubated with a receptor membrane preparation (15-40 μg protein/250 μl incubation batch) of CHO-K1 cells, which express the human μ-opiate receptor (RB-HOM receptor membrane preparation from PerkinElmer Life Sciences, Zaventem, Belgium), in the presence of 1 nmole/l of the radioactive ligand [^3H]-naloxone (NET719, PerkinElmer Life Sciences company, Zaventem, Belgium) and 1 mg WGA-SPA beads (wheat germ agglutinin SPA beads from Amersham/Pharmacia, Freiburg, Germany) in a total volume of 250 μl for 90 minutes at room temperature. 50 mmole/l of Tris-HCl supplemented with 0.06% bovine serum albumin is used as incubation buffer. In order to determine the non-specific binding, 100 μmole/l of naloxone is additionally added. After the end of the 90 minutes' incubation time the microtiter plates are centrifuged for 20 minutes at 1000 g and the radioactivity is measured in a beta counter (Microbeta-Trilux, PerkinElmer Wallac, Freiburg, Germany). The percentage displacement of the radioactive ligand from its binding to the human μ-opiate receptor at a concentration of the test substances of 1 μmole/l is determined and is given as percentage inhibition of the specific binding.
# T1 sequence (P35372 whole entry): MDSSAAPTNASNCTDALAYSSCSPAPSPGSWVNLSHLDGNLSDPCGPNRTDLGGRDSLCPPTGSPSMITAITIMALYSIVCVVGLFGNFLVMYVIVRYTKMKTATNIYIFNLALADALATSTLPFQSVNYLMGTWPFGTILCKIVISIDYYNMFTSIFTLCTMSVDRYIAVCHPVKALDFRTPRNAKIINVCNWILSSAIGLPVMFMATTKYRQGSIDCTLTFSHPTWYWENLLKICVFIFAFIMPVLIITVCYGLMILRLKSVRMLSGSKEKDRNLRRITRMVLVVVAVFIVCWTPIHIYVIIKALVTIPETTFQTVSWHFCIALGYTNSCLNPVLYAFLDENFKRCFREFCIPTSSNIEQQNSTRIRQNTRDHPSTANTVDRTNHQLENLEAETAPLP
row,SMILES,inhibition at 1 µM [%]
1,"COC(=O)C1(Cc2ccc(Cl)cc2)N=CN(CCc2ccccc2)C1C1CCC(C(c2ccc(Cl)cc2)N(C)C)CC1 (stereo not shown) [Example 41, 4-(4-chlorobenzyl)-5-{4-[(4-chlorophenyl)-dimethylaminomethyl]-cyclohexyl}-1-phenethyl-4,5-dihydro-1H-imidazole-4-carboxylic acid methyl ester]",79
2,"COC(=O)C1(CCSC)N=CN(Cc2ccccc2)C1CC1CCC(C(c2ccc(F)cc2)N(C)C)CC1 (stereo not shown) [Example 142, 1-benzyl-5-{4-[dimethylamino-(4-fluorophenyl)-methyl]-cyclohexylmethyl}-4-(2-methylsulfanyl-ethyl)-4,5-dihydro-1H-imidazole-4-carboxylic acid methyl ester]",97
3,"COC(=O)C1(CC(C)C)N=CN(CCc2ccccc2)C1C1CCC(C(c2cccc(F)c2)N(C)C)CC1 (stereo not shown) [Example 37, 5-{4-[dimethylamino-(3-fluorophenyl)-methyl]-cyclohexyl}-4-isobutyl-1-phenethyl-4,5-dihydro-1H-imidazole-4-carboxylic acid methyl ester]",93
4,"COC(=O)CCC1(C(=O)OC)N=CN(C2CCCCC2)C1C1CCC(C(c2ccc(Cl)cc2)N(C)C)CC1 (stereo not shown) [Example 51, 5-{4-[(4-chlorophenyl)-dimethylaminomethyl]-cyclohexyl}-1-cyclohexyl-4-(2-methoxycarbonylethyl)-4,5-dihydro-1H-imidazole-4-carboxylic acid methyl ester]",96
5,"CCCCC1(C(=O)OC)N=CN(C2CCCCC2)C1C1CCC(C(c2ccc(Cl)cc2)N(C)C)CC1 (stereo not shown) [Example 16, 4-butyl-5-{4-[(4-chlorophenyl)-dimethylaminomethyl]-cyclohexyl}-1-cyclohexyl-4,5-dihydro-1H-imidazole-4-carboxylic acid methyl ester]",92
6,"CCCN1C=NC(CC(C)C)(C(=O)OC)C1C1CCC(C(c2cccc(F)c2)N(C)C)CC1 (stereo not shown) [Example 21, 5-{4-[dimethylamino-(3-fluorophenyl)-methyl]-cyclohexyl}-4-isobutyl-1-propyl-4,5-dihydro-1H-imidazole-4-carboxylic acid methyl ester]",83
7,"COC(=O)C1(CCSC)N=CN(Cc2ccccc2)C1CC1CCC(C(CCc2ccccc2)N(C)C)CC1 (stereo not shown) [Example 145, 1-benzyl-5-[4-(1-dimethylamino-3-phenylpropyl)-cyclohexylmethyl]-4-(2-methylsulfanyl-ethyl)-4,5-dihydro-1H-imidazole-4-carboxylic acid methyl ester]",79
8,"CCC(C)C1(C(=O)OC)N=CN(CCc2ccccc2)C1CC1CCC(C(c2cccc(F)c2)N(C)C)CC1 (stereo not shown) [Example 81, 4-sec-butyl-5-{4-[dimethylamino-(3-fluorophenyl)-methyl]-cyclohexylmethyl}-1-phenethyl-4,5-dihydro-1H-imidazole-4-carboxylic acid methyl ester]",76
9,"COC(=O)CCC1(C(=O)OC)N=CN(C2CCCCC2)C1CC1CCC(C(c2cccc(F)c2)N(C)C)CC1 (stereo not shown) [Example 147, 1-cyclohexyl-5-{4-[dimethylamino-(3-fluorophenyl)-methyl]-cyclohexylmethyl}-4-(2-methoxycarbonylethyl)-4,5-dihydro-1H-imidazole-4-carboxylic acid methyl ester]",98
10,"COC(=O)C1(C)N=CN(C2CCCCC2)C1CC1CCC(C(c2cccc(F)c2)N(C)C)CC1 (stereo not shown) [Example 104, 1-cyclohexyl-5-{4-[dimethylamino-(3-fluorophenyl)-methyl]-cyclohexylmethyl}-4-methyl-4,5-dihydro-1H-imidazole-4-carboxylic acid methyl ester]",93
11,"COC(=O)C1(CC(C)C)N=CN(Cc2ccccc2)C1C1CCC(C(c2cccc(F)c2)N(C)C)CC1 (stereo not shown) [Example 46, 1-benzyl-5-{4-[dimethylamino-(3-fluorophenyl)-methyl]-cyclohexyl}-4-isobutyl-4,5-dihydro-1H-imidazole-4-carboxylic acid methyl ester]",92
12,"COC(=O)C1(C)N=CN(CCc2ccccc2)C1CC1CCC(C(c2ccc(F)cc2)N(C)C)CC1 (stereo not shown) [Example 134, 5-{4-[dimethylamino-(4-fluorophenyl)-methyl]-cyclohexylmethyl}-4-methyl-1-phenethyl-4,5-dihydro-1H-imidazole-4-carboxylic acid methyl ester]",92
13,"CCCCN1C=NC(CC(C)C)(C(=O)OC)C1C1CCC(C(c2cccc(F)c2)N(C)C)CC1 (stereo not shown) [Example 29, 1-butyl-5-{4-[dimethylamino-(3-fluorophenyl)-methyl]-cyclohexyl}-4-isobutyl-4,5-dihydro-1H-imidazole-4-carboxylic acid methyl ester]",89
14,"CCCN1C=NC(CCC(=O)OC)(C(=O)OC)C1CC1CCC(C(c2ccc(F)cc2)N(C)C)CC1 (stereo not shown) [Example 159, 5-{4-[dimethylamino-(4-fluorophenyl)-methyl]-cyclohexylmethyl}-4-(2-methoxycarbonylethyl)-1-propyl-4,5-dihydro-1H-imidazole-4-carboxylic acid methyl ester]",79
15,"COC(=O)C1(CSCc2ccccc2)N=CN(CCc2ccccc2)C1C1CCC(C(c2ccc(Cl)cc2)N(C)C)CC1 (stereo not shown) [Example 93, 4-benzylsulfanylmethyl-5-{4-[(4-chlorophenyl)-dimethylaminomethyl]-cyclohexyl}-1-phenethyl-4,5-dihydro-1H-imidazole-4-carboxylic acid methyl ester]",92
16,"COC(=O)C1(CSCc2ccccc2)N=CN(Cc2ccccc2)C1CC1CCC(C(c2ccc(Cl)cc2)N(C)C)CC1 (stereo not shown) [Example 101, 1-benzyl-4-benzylsulfanylmethyl-5-{4-[(4-chlorophenyl)-dimethylaminomethyl]-cyclohexylmethyl}-4,5-dihydro-1H-imidazole-4-carboxylic acid methyl ester]",96
17,"CCCN1C=NC(CSCc2ccccc2)(C(=O)OC)C1C1CCC(C(c2ccc(Cl)cc2)N(C)C)CC1 (stereo not shown) [Example 60, 4-benzylsulfanylmethyl-5-{4-[(4-chlorophenyl)-dimethylaminomethyl]-cyclohexyl}-1-propyl-4,5-dihydro-1H-imidazole-4-carboxylic acid methyl ester]",95
18,"CCCCN1C=NC(CSC)(C(=O)OC)C1CC1CCC(C(c2ccc(F)cc2)N(C)C)CC1 (stereo not shown) [Example 77, 1-butyl-5-{4-[dimethylamino-(4-fluorophenyl)-methyl]-cyclohexylmethyl}-4-methylsulfanylmethyl-4,5-dihydro-1H-imidazole-4-carboxylic acid methyl ester]",88
19,"COC(=O)C1(C)N=CN(Cc2ccccc2)C1CC1CCC(C(c2ccc(F)cc2)N(C)C)CC1 (stereo not shown) [Example 143, 1-benzyl-5-{4-[dimethylamino-(4-fluorophenyl)-methyl]-cyclohexylmethyl}-4-methyl-4,5-dihydro-1H-imidazole-4-carboxylic acid methyl ester]",100
20,"CCCCN1C=NC(CCC(=O)OC)(C(=O)OC)C1CC1CCC(C(c2cccc(F)c2)N(C)C)CC1 (stereo not shown) [Example 72, 1-butyl-5-{4-[dimethylamino-(3-fluorophenyl)-methyl]-cyclohexylmethyl}-4-(2-methoxycarbonylethyl)-4,5-dihydro-1H-imidazole-4-carboxylic acid methyl ester]",95
21,"COC(=O)C1(C)N=CN(Cc2ccccc2)C1CC1CCC(C(CCc2ccccc2)N(C)C)CC1 (stereo not shown) [Example 146, 1-benzyl-5-[4-(1-dimethylamino-3-phenylpropyl)-cyclohexylmethyl]-4-methyl-4,5-dihydro-1H-imidazole-4-carboxylic acid methyl ester]",79
22,"CCCN1C=NC(CCSC)(C(=O)OC)C1CC1CCC(C(CCc2ccccc2)N(C)C)CC1 (stereo not shown) [Example 121, 5-[4-(1-dimethylamino-3-phenylpropyl)-cyclohexylmethyl]-4-(2-methylsulfanylethyl)-1-propyl-4,5-dihydro-1H-imidazole-4-carboxylic acid methyl ester]",77
23,"CCCCN1C=NC(CSCc2ccccc2)(C(=O)OC)C1CC1CCC(C(c2ccc(Cl)cc2)N(C)C)CC1 (stereo not shown) [Example 90, 4-benzylsulfanylmethyl-1-butyl-5-{4-[(4-chlorophenyl)-dimethylaminomethyl]-cyclohexylmethyl}-4,5-dihydro-1H-imidazole-4-carboxylic acid methyl ester]",99
24,"COC(=O)C1(C)N=CN(C2CCCCC2)C1CC1CCC(C(CCc2ccccc2)N(C)C)CC1 (stereo not shown) [Example 110, 1-cyclohexyl-5-[4-(1-dimethylamino-3-phenylpropyl)-cyclohexylmethyl]-4-methyl-4,5-dihydro-1H-imidazole-4-carboxylic acid methyl ester]",67
25,"CCCCN1C=NC(C)(C(=O)OC)C1CC1CCC(C(c2cccc(F)c2)N(C)C)CC1 (stereo not shown) [Example 124, 1-butyl-5-{4-[dimethylamino-(3-fluorophenyl)-methyl]-cyclohexylmethyl}-4-methyl-4,5-dihydro-1H-imidazole-4-carboxylic acid methyl ester]",95
